Results taken from patent publication US8933099B2, “Monocyclic pyridine derivative” (Eisai R&D Management Co., Ltd., priority 2013, dated 2015).
Where two headings read alike, the source gives them in different places.

Experiments:
[1] = tested on: human stomach cancer cell line SNU-16 (FGFR2 gene amplification); experiment: SNU-16 growth inhibition assay; format: cell-based
Procedure: In this assay, the growth inhibitory activity of a test substance in a human stomach cancer cell line harboring FGFR2 gene amplification is measured.
Then, 10 μL of Cell Counting Kit-8 (Dojindo Laboratories, CK04) was added to each well, and the resultant was incubated for 1 to 2 hours in a 5% CO2 incubator (37° C.) to cause a color reaction. The absorbance value was measured with ENVISION™ (PerkinElmer Co., Ltd.) at 450 nm.

[2] = tested on: normal human umbilical vein endothelial cells (HUVEC); experiment: HUVEC growth inhibition assay (VEGF-induced); format: cell-based
Procedure: The absorbance value was measured with ENVISION™ (PerkinElmer Co., Ltd.) at 450 nm. The absorbance values of the wells without adding the test substance but with VEGF addition was defined as 100% and the absorbance values of the wells with neither the test substance nor VEGF addition was defined as 0%.

[3] = Homo sapiens, SNU-16, 72 h, read-out: SNU-16 (IC50 (nM)), cell growth, 3 days, Cell Counting Kit-8
[4] = Homo sapiens, HUVEC, 72 h, read-out: HUVEC (IC50 (nM)), growth in the presence of VEGF 10 ng/mL, 3 days

CNC(=O)n1ccc2cc(Oc3ccnc(NC(=O)c4ccc(CN5CCC[C@@H]5CO)s4)c3)c(OCCOC)cc21 [Example 82]
IC50 [1, 3]: 6.2 nM | IC50 [2, 4]: 264 nM

CCOc1cc2c(ccn2C(=O)NC)cc1Oc1ccnc(NC(=O)c2ccc(C3CCN(C)CC3)cc2)c1 [Example 64]
IC50 [1, 3]: 10.3 nM | IC50 [2, 4]: 175 nM

CNC(=O)n1ccc2cc(Oc3ccnc(NC(=O)c4ccc(CN5CCC(O)CC5)s4)c3)c(OCCOC)cc21 [Example 86]
IC50 [1, 3]: 6.2 nM | IC50 [2, 4]: 250 nM

CNC(=O)n1ccc2cc(Oc3ccnc(NC(=O)c4ccc(C5CCN(C[C@H](C)O)CC5)cc4)c3)c(OC(C)C)cc21 [Example 66]
IC50 [1, 3]: 16.1 nM | IC50 [2, 4]: 203 nM

CNC(=O)n1ccc2cc(Oc3ccnc(NC(=O)c4cnn(C5CCN(C(C)C)CC5)c4)c3)c(OC)cc21 [Example 46]
IC50 [1, 3]: 17.4 nM | IC50 [2, 4]: 402 nM

CNC(=O)n1ccc2cc(Oc3ccnc(NC(=O)c4ccc(C5CCN(C[C@@H](C)O)CC5)cc4)c3)c(OC)cc21 [Example 54]
IC50 [1, 3]: 6.4 nM | IC50 [2, 4]: 86.7 nM

CNC(=O)n1ccc2cc(Oc3ccnc(NC(=O)c4ccc(OC5CCN(C[C@@H](C)O)CC5)cc4)c3)c(OC)cc21 [Example 41]
IC50 [1, 3]: 9.3 nM | IC50 [2, 4]: 179 nM

CNC(=O)n1ccc2cc(Oc3ccnc(NC(=O)c4ccc(CN5C[C@H](OC)[C@@H](O)C5)cc4)c3)c(OC)cc21 [Example 10, 5-((2-(4-(((3S,4S)-3-Hydroxy-4-methoxypyrrolidin-1-yl)methyl)benzamide)pyridin-4-yl)oxy)-6-methoxy-N-methyl-1,4-indole-1-carboxamide]
IC50 [1, 3]: 28.7 nM | IC50 [2, 4]: 350 nM

CNC(=O)n1ccc2cc(Oc3ccnc(NC(=O)c4ccc(OC5CCN(C[C@H](C)O)CC5)cc4)c3)c(OC)cc21 [Example 42]
IC50 [1, 3]: 14.1 nM | IC50 [2, 4]: 184 nM

CNC(=O)n1ccc2cc(Oc3ccnc(NC(=O)c4ccc(CN5CCC[C@@H]5CO)cc4)c3)c(OC)cc21 [Example 50]
IC50 [1, 3]: 16.6 nM | IC50 [2, 4]: 394 nM

CNC(=O)n1ccc2cc(Oc3ccnc(NC(=O)c4ccc(CN5C[C@@H](C)N[C@@H](C)C5)s4)c3)c(OC)cc21 [Example 36]
IC50 [1, 3]: 11 nM | IC50 [2, 4]: 136 nM

CCN1CC(c2ccc(C(=O)Nc3cc(Oc4cc5ccn(C(=O)NC)c5cc4OCCOC)ccn3)cc2)C1 [Example 89]
IC50 [1, 3]: 6.5 nM | IC50 [2, 4]: 416 nM

CNC(=O)n1ccc2cc(Oc3ccnc(NC(=O)c4ccc(CN5CC[C@@H](O)C5)s4)c3)c(OCCOC)cc21 [Example 85]
IC50 [1, 3]: 6.9 nM | IC50 [2, 4]: 235 nM

CNC(=O)n1ccc2cc(Oc3ccnc(NC(=O)c4ccc(C5CCN(C[C@H](C)O)CC5)cc4)c3)c(OCCCF)cc21 [Example 75]
IC50 [1, 3]: 7.3 nM | IC50 [2, 4]: 211 nM

CNC(=O)n1ccc2cc(Oc3ccnc(NC(=O)c4ccc(C5(F)CCNCC5)cc4)c3)c(OC)cc21 [Example 7, 5-((2-(4-(4-Fluoropiperidin-4-yl)benzamide)pyridin-4-yl)oxy)-6-methoxy-N-methyl-1H-indole-1-carboxamide]
IC50 [1, 3]: 9.6 nM | IC50 [2, 4]: 205 nM

CCOc1cc2c(ccn2C(=O)NC)cc1Oc1ccnc(NC(=O)c2ccc(CN3CCC(O)CC3)cc2)c1 [Example 65]
IC50 [1, 3]: 23.6 nM | IC50 [2, 4]: 575 nM

CNC(=O)n1ccc2cc(Oc3ccnc(NC(=O)c4ccc(C5CCN(C(C)C)CC5)nc4)c3)c(OCCOC)cc21 [Example 77]
IC50 [1, 3]: 9.6 nM | IC50 [2, 4]: 1030 nM

CCOCCOc1cc2c(ccn2C(=O)NC)cc1Oc1ccnc(NC(=O)c2ccc(C3CN(C)C3)cc2)c1 [Example 102]
IC50 ([1]; read-out: SNU-16 (IC50 (nM)), cell growth, 3 days, Cell Counting Kit-8): 3.7 nM | IC50 ([2]; read-out: HUVEC (IC50 (nM)), growth in the presence of VEGF 10 ng/mL, 3 days): 226 nM

CNC(=O)n1ccc2cc(Oc3ccnc(NC(=O)c4cnn(C5CCN(C[C@H](C)O)CC5)c4)c3)c(OC)cc21 [Example 45]
IC50 [1, 3]: 15.5 nM | IC50 [2, 4]: 379 nM

CCN1CC(c2ccc(C(=O)Nc3cc(Oc4cc5ccn(C(=O)NC)c5cc4OC)ccn3)cc2)C1 [Example 49]
IC50 [1, 3]: 9.6 nM | IC50 [2, 4]: 163 nM

CNC(=O)n1ccc2cc(Oc3ccnc(NC(=O)c4ccc(CN5CCC(O)CC5)cc4)c3)c(OC(F)F)cc21 [Example 19, 6-(Difluoromethoxy)-5-((2-(4-((4-hydroxypiperidin-1-yl)methyl)benzamide)pyridin-4-yl)oxy)-N-methyl-1H-indole-1-carboxamide]
IC50 [1, 3]: 14.1 nM | IC50 [2, 4]: 151 nM

CNC(=O)n1ccc2cc(Oc3ccnc(NC(=O)c4ccc(CN5CCC(O)CC5)cc4)c3)c(OCCCF)cc21 [Example 73]
IC50 [1, 3]: 17.4 nM | IC50 [2, 4]: 703 nM

CNC(=O)n1ccc2cc(Oc3ccnc(NC(=O)c4ccc(CCN5CCC(O)CC5)cc4)c3)c(OC)cc21 [Example 56]
IC50 [1, 3]: 15 nM | IC50 [2, 4]: 96.8 nM

CNC(=O)n1ccc2cc(Oc3ccnc(NC(=O)c4ccc(CN5CC[C@@H](O)C5)cc4)c3)c(OC)cc21 [Example 53]
IC50 [1, 3]: 14.5 nM | IC50 [2, 4]: 401 nM

CNC(=O)n1ccc2cc(Oc3ccnc(NC(=O)c4ccc(CN5CCC(O)CC5)cc4)c3)c(OC(C)C)cc21 [Example 70]
IC50 [1, 3]: 22.4 nM | IC50 [2, 4]: 610 nM

CNC(=O)n1ccc2cc(Oc3ccnc(NC(=O)c4cnn(C5CCN(C[C@@H](C)O)CC5)c4)c3)c(OC)cc21 [Example 44]
IC50 [1, 3]: 16.3 nM | IC50 [2, 4]: 392 nM

CCOCCOc1cc2c(ccn2C(=O)NC)cc1Oc1ccnc(NC(=O)c2ccc(CN3CCC(O)CC3)s2)c1 [Example 101]
IC50 [1, 3]: 6.8 nM | IC50 [2, 4]: 182 nM

CNC(=O)n1ccc2cc(Oc3ccnc(NC(=O)c4ccc(N5CCC(N6CCCC6)CC5)cc4)c3)c(OC)cc21 [Example 8, 6-Methoxy-N-methyl-5-((2-(4-(4-(pyrrolidin-1-yl)piperidin-1-yl)benzamide)pyridin-4-yl)oxy)-1H-indole-1-carboxamide]
IC50 [1, 3]: 15.4 nM | IC50 [2, 4]: 140 nM

CCOCCOc1cc2c(ccn2C(=O)NC)cc1Oc1ccnc(NC(=O)c2ccc(CN3CCN(CC)CC3)cc2)c1 [Example 108]
IC50 [1, 3]: 14.7 nM | IC50 [2, 4]: 363 nM

CNC(=O)n1ccc2cc(Oc3ccnc(NC(=O)c4ccc(C5CCN(C[C@@H](C)O)CC5)cc4)c3)c(OCCOC)cc21 [Example 90]
IC50 [1, 3]: 6.1 nM | IC50 [2, 4]: 203 nM

CCOCCOc1cc2c(ccn2C(=O)NC)cc1Oc1ccnc(NC(=O)c2ccc(C3CCN(C(C)C)CC3)nc2)c1 [Example 94]
IC50 [1, 3]: 7.9 nM | IC50 [2, 4]: 607 nM

CCOc1cc2c(ccn2C(=O)NC)cc1Oc1ccnc(NC(=O)c2ccc(C3CCN(C[C@@H](C)O)CC3)cc2)c1 [Example 60]
IC50 [1, 3]: 14.7 nM | IC50 [2, 4]: 178 nM

CNC(=O)n1ccc2cc(Oc3ccnc(NC(=O)c4ccc(CN5CC[C@@H](O)C5)cc4)c3)c(OCCCF)cc21 [Example 72]
IC50 [1, 3]: 17.1 nM | IC50 [2, 4]: 681 nM

CNC(=O)n1ccc2cc(Oc3ccnc(NC(=O)c4ccc(C5CCN(C[C@@H](C)O)CC5)cc4)c3)c(OCCCF)cc21 [Example 74]
IC50 [1, 3]: 8.4 nM | IC50 [2, 4]: 198 nM

CCOCCOc1cc2c(ccn2C(=O)NC)cc1Oc1ccnc(NC(=O)c2ccc(CN3CCC(F)CC3)cc2)c1 [Example 107]
IC50 [1, 3]: 22 nM | IC50 [2, 4]: 907 nM

CCN1CCC(c2ccc(C(=O)Nc3cc(Oc4cc5ccn(C(=O)NC)c5cc4OC(C)C)ccn3)cc2)CC1 [Example 68]
IC50 [1, 3]: 20 nM | IC50 [2, 4]: 256 nM

CNC(=O)n1ccc2cc(Oc3ccnc(NC(=O)c4ccc(OC5CCN(CCO)CC5)cc4)c3)c(OC)cc21 [Example 14, 5-((2-(4-((1-(2-Hydroxyethyl)piperidin-4-yl)oxy)benzamide)pyridin-4-yl)oxy)-6-methoxy-N-methyl-1H-indole-1-carboxamide]
IC50 [1, 3]: 9.5 nM | IC50 [2, 4]: 169 nM

CCOCCOc1cc2c(ccn2C(=O)NC)cc1Oc1ccnc(NC(=O)c2ccc(C3CCN(CC)CC3)nc2)c1 [Example 28, 6-(2-Ethoxyethoxy)-5-((2-(6-(1-ethylpiperidin-4-yl)nicotinamide)pyridin-4-yl)oxy)-N-methyl-1H-indole-1-carboxamide]
IC50 [1, 3]: 7.3 nM | IC50 [2, 4]: 664 nM

CNC(=O)n1ccc2cc(Oc3ccnc(NC(=O)c4ccc(CN5CCC[C@H]5CO)cc4)c3)c(OCCCOC)cc21 [Example 117]
IC50 [1, 3]: 16.6 nM | IC50 [2, 4]: 534 nM

CNC(=O)n1ccc2cc(Oc3ccnc(NC(=O)c4ccc(C5CCN(CCO)CC5)cc4)c3)c(OC(C)C)cc21 [Example 67]
IC50 [1, 3]: 17.6 nM | IC50 [2, 4]: 223 nM

CNC(=O)n1ccc2cc(Oc3ccnc(NC(=O)c4ccc(CN5CC[C@H](O)C5)cc4)c3)c(OCCCF)cc21 [Example 71]
IC50 [1, 3]: 17 nM | IC50 [2, 4]: 648 nM

CCOCCOc1cc2c(ccn2C(=O)NC)cc1Oc1ccnc(NC(=O)c2ccc(C3CCN(C[C@H](C)O)CC3)cc2)c1 [Example 112]
IC50 [1, 3]: 3.8 nM | IC50 [2, 4]: 202 nM

CCOCCOc1cc2c(ccn2C(=O)NC)cc1Oc1ccnc(NC(=O)c2ccc(CN3CC[C@@H](O)C3)s2)c1 [Example 31]
IC50 [1, 3]: 4.7 nM | IC50 [2, 4]: 186 nM

CNC(=O)n1ccc2cc(Oc3ccnc(NC(=O)c4ccc(CN5CC[C@H](O)C5)s4)c3)c(OCCOC)cc21 [Example 84]
IC50 [1, 3]: 6.2 nM | IC50 [2, 4]: 255 nM

CCOCCOc1cc2c(ccn2C(=O)NC)cc1Oc1ccnc(NC(=O)c2ccc(C3CN(CCO)C3)cc2)c1 [Example 27, 6-(2-Ethoxyethoxy)-5-((2-(4-(1-(2-hydroxyethyl)azetidin-3-yl)benzamide)pyridin-4-yl)oxy)-N-methyl-1H-indole-1-carboxamide]
IC50 [1, 3]: 6.2 nM | IC50 [2, 4]: 218 nM

CNC(=O)n1ccc2cc(Oc3ccnc(NC(=O)c4ccc(C5CCN(C[C@H](C)O)CC5)cc4)c3)c(OCCOC)cc21 [Example 91]
IC50 [1, 3]: 5.3 nM | IC50 [2, 4]: 191 nM
